Source: patent US5594144A, “Tropolone derivatives and pharmaceutical composition thereof for preventing and treating ischemic diseases” (The Upjohn Company, priority 1990, dated 1997)

How the values were obtained:
[1] = system: pig right coronary artery; experiment: in vitro Ca-antagonism (high K+ induced 45Ca-influx); format: cell-based; conditions: Sus scrofa, K+ 75 mM
Description: 2. in vitro Ca-antagonism
A strip of pig right coronary artery was depolarized with high K^+ (75 mM) for 30 minutes to induce voltage dependent ^45 Ca-influx. The extracellular ^45 Ca was chelated by adding EGTA and removed by washing, then the strip was lysed at 100° C. ^45 Ca in this lysate was measured as intracellular ^45 Ca by a scintillation counter. The concentration of the test compound was 10^-7, 10^-6, 10^-5 M, and applied until depolarization by K^+ was completed. Ratio of inhibition at various concentrations of the test compounds for increasing the intracellular ^45 Ca by K^+ was determined. The compound with high inhibition ratio has strong Ca-antagonism.

[2] = system: Brain microsomal fractions; experiment: in vitro Anti-lipid peroxidation effect (TBAR production, Fe3+-ADP/NADPH); format: biochemical, rat (SD strain, male)
Description: 1. in vitro Anti-lipid peroxidation effect
Brain microsomal fractions were prepared from male rats of SD strain, and a portion (0.2 mg protein) was incubated at 37° C. for 15 minutes with a mixture of Fe^3+ (0.1 mM)--ADP (0.5 mM) in the presence or absence of the test compound, in final volume of 1 ml of 10 mM HEPES, 150 mM KCl, 0.2 mM NADPH, pH 7.4. After incubation, 1.5 ml of TCA-TBA-HCl reagent (16.7% trichloroacetic acid, 0.4% thiobarbituric acid, 0.278N hydrochloric acid) was added and the reaction mixture was heated in a boiling water for 15 minutes. After cooling in ice-bath, the reaction mixture was centrifuged, and the absorbance of the supernatant at 535 nm was measured. The amount of thiobarbituric acid reactive substance (TBAR) was obtained by calculation using an extinction coefficient of 1.56×10^5 […]. […] The results are shown in Table 1A for compounds of the formulas IA, IB, and IC, respectively. The compounds with highest inhibition rate have the greatest anti-lipid peroxidation effect.

SMILES	inhibition at 10 µM [1]	Anti-Lipid Peroxidation (% inhibition) 10 μM [2]	Anti-Lipid Peroxidation (% inhibition) 50 μM [2]
COc1cc(C(C)C)ccc(C(C)N2CCN(C(c3ccccc3)c3ccc(Cl)cc3)CC2)c1=O (stereo not drawn) [Compound 4A, 7-{1-[4-(4-chlorobenzhydryl)]piperazinomethyl-α-methyl-}-4-isopropyl-2-methoxy-2,4,6-cycloheptatrien-1-one]	45%	25.8%	75.1%
CCCCOc1cc(C(C)C)ccc(CN2CCN(C(c3ccc(F)cc3)c3ccc(F)cc3)CC2)c1=O [Compound 13A, 2-butoxy-7-[4-(4,4'-difluorobenzhydryl)piperazino-1-methyl]-4-isopropyl-2,4,6-cycloheptatrien-1-one]	38%	23.1%	27.4%
CNCCNc1cc(C(C)C)ccc(CN2CCN(C(c3ccc(F)cc3)c3ccc(F)cc3)CC2)c1=O [Compound 3C, 7-[4-(4,4'-difluorobenzhydryl)piperazino-1-methyl]-4-isopropyl-2-(N-2-methylaminoethylamino)-2,4,6-cycloheptatrien-1-one]	49%	88.0%	91.6%
CC(C)c1ccc(CN2CCN(C(c3ccc(F)cc3)c3ccc(F)cc3)CC2)c(=O)c(N2CCCCC2)c1 [Compound 17C, 7-[4-(4,4'-difluorobenzhydryl)piperazino-1-methyl]-4-isopropyl-2-piperidino-2,4,6-cycloheptatrien-1-one]	53%	32.4%	44.1%
CC(C)c1ccc(C2Sc3ccccc3N2CCc2ccccc2)c(=O)c(NCCN(C)C)c1 (stereo not drawn) [Compound 16B]		91.2%	95.1%
CC(C)c1ccc(CN2CCN(C(c3ccc(F)cc3)c3ccc(F)cc3)CC2)c(=O)c(NCCN)c1 [Compound 4C, 2-(N-2-aminoethylamino)-7-[4-(4,4'-difluorobenzhydryl)piperazino-1-methyl]-4-isopropyl-2,4,6-cycloheptatrien-1-one]	54%	45.2%	92.9%
CC(C)c1ccc(CN2CCN(C(c3ccc(F)cc3)c3ccc(F)cc3)CC2)c(=O)c(NCCNc2ncccn2)c1 [Compound 10C, 7-[4-(4,4'-difluorobenzhydryl)piperazino-1-methyl]-4-isopropyl-2-[N-2-(2-pyrimidylamino)ethylamino]-2,4,6-cycloheptatrien-1-one]	65%	46.3%	92.5%
CCCCC(c1ccc(C(C)C)cc(OC)c1=O)N1CCN(C(c2ccccc2)c2ccc(Cl)cc2)CC1 (stereo not drawn) [Compound 5A]	19%	30.5%	38.7%
COc1cc(C(C)C)ccc(CN2C(C)CN(C(c3ccc(F)cc3)c3ccc(F)cc3)CC2C)c1=O (stereo not drawn) [Compound 21C, 7-[4-(4,4'-difluorobenzhydryl)-2,6-dimethylpiperazino-1-methyl]-4-isopropyl-2-methoxy-2,4,6-cycloheptatrien-1-one]	42%	47.8%	89.9%
COCCNc1cc(C(C)C)ccc(CN2CCN(C(c3ccc(F)cc3)c3ccc(F)cc3)CC2)c1=O [Compound 14C, 7-[4-(4,4'-difluorobenzhydryl)piperazino-1-methyl]-4-isopropyl-2-(N-2-methoxyethylamino)-2,4,6-cycloheptatrien-1-one]	71%	27.0%	90.4%
COc1cc(C(C)C)ccc(C2Sc3ccccc3N2CCc2ccccn2)c1=O (stereo not drawn) [Compound 7B, 2-(2'-oxo-3'-methoxy-5'-isopropyl-3',5',7'-cycloheptatrienyl)-3-[2-(2-pyridyl)ethyl]benzothiazoline]		91.9%	94.3%
CCN(CC)CCNc1cc(C(C)C)ccc(CN2CCN(C(c3ccc(F)cc3)c3ccc(F)cc3)CC2)c1=O [Compound 7C, 2-(N-2-diethylaminoethylamino)-7-[4-(4,4'-difluorobenzhydryl)piperazino-1-methyl]-4-isopropyl-2,4,6-cycloheptatrien-1-one]	67%	21.3%	90.4%
COc1ccc(CCOc2cc(C(C)C)ccc(CN3CCN(C(c4ccc(F)cc4)c4ccc(F)cc4)CC3)c2=O)cc1OC [Compound 16A, 7-[4-(4,4'-difluorobenzhydryl)piperazino-1-methyl]-2-[2-(3,4-dimethoxyphenyl)ethoxy]-4-isopropyl-2,4,6-cycloheptatrien-1-one]	52%	19.1%	19.1%
COc1cc(C(C)C)ccc(C2Sc3ccccc3N2Cc2ccc3ccccc3n2)c1=O (stereo not drawn) [Compound 9B, 2-(2'-oxo-3'-methoxy-5'-isopropyl-3',5',7'-cycloheptatrienyl)-3-(2-quinolyl)methylbenzothiazoline]		94.9%	96.6%
COc1ccc(CCN2c3ccccc3SC2c2ccc(C(C)C)cc(OC)c2=O)cc1OC (stereo not drawn) [Compound 8B, 2-(2'-oxo-3'-methoxy-5'-isopropyl-3',5',7'-cycloheptatrienyl)-3-[2-(3,4-dimethoxyphenyl)ethyl]benzothiazoline]		93.4%	93.8%
COc1cc(C(C)C)ccc(C2Sc3ccccc3N2CCCN2CCN(C(c3ccc(F)cc3)c3ccc(F)cc3)CC2)c1=O (stereo not drawn) [Compound 13B, 2-(2'-oxo-3'-methoxy-5'-isopropyl-3',5',7'-cycloheptatrienyl)-3-{3-[4-(4',4'-difluorobenzhydryl)piperazin-1-yl)propyl}benzothiazoline]		91.8%	94.4%
COc1cc(C(C)C)ccc(C2Sc3ccccc3N2Cc2cccnc2)c1=O (stereo not drawn) [Compound 5B, 2-(2'-oxo-3'-methoxy-5'-isopropyl-3',5',7'-cycloheptatrienyl)-3-(3-picolyl)benzothiazoline]		95.9%	100%
COc1cc(C(C)C)ccc(C2Sc3ccccc3N2Cc2ccccn2)c1=O (stereo not drawn) [Compound 4B, 2-(2'-oxo-3'-methoxy-5'-isopropyl-3',5',7'-cycloheptatrienyl)-3-(2-picolyl)benzothiazoline]		95.7%	99.3%
CC(C)c1ccc(CN2CCN(C(c3ccc(F)cc3)c3ccc(F)cc3)CC2)c(=O)c(OCCCN(C)CCc2ccccc2)c1 [Compound 18A, 7-[4-(4,4'-difluorobenzhydryl)piperazino-1-methyl]-2-[3-(N-methyl-N-phenethylamino)propoxy]-4-isopropyl-2,4,6-cycloheptatrien-1-one]		37.0%	93.1%
CC(C)c1ccc(C2Sc3ccccc3N2CCc2ccccc2)c(=O)c(N2CCNCC2)c1 (stereo not drawn) [Compound 15B, 2-[2'-oxo-3'-(1-piperazinyl)-5'-isopropyl-3',5',7'-cycloheptatrienyl]-3-phenethylbenzothiazoline]		93.0%	94.4%
